In the test the target is T1, Muscarinic acetylcholine receptor M4 (Rattus norvegicus, UniProt P08485).
T1 sequence (P08485 whole entry): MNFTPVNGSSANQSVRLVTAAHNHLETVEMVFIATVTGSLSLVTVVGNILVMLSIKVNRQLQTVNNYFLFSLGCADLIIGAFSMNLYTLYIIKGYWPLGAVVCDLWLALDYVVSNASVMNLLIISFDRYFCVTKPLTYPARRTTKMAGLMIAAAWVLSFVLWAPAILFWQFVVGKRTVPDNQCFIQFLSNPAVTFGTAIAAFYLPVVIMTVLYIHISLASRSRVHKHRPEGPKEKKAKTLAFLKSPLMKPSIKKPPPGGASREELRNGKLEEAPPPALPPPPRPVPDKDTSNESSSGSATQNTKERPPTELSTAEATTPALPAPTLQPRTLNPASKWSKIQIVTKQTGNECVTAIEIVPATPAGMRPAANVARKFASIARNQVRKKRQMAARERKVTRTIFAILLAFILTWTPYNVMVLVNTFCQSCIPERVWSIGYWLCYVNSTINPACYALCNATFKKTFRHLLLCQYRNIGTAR
Briefly: potentiation of rat muscarinic M4 receptor – cell-based, analogs, SAR follow-up (AID 1938).

As for `Cc1cc(C)c2c(N)c(C(=O)NCc3ccc4c(c3)OCO4)sc2n1` [3-amino-4,6-dimethyl-N-piperonyl-thieno[2,3-b]pyridine-2-carboxamide], the EC50 (usually the concentration that produces a half-maximal response) is 403 nM.

Regarding `COc1ccc(CNC(=O)c2sc3nc(OCc4ccncc4)cc(C)c3c2N)cc1` [3-amino-4-methyl-N-p-anisyl-6-(4-pyridylmethoxy)thieno[2,3-b]pyridine-2-carboxamide], the EC50 turned out to be 1960 nM.

As for `Cc1cc(OCc2ccncc2)nc2sc(C(=O)NCc3cccc(F)c3F)c(N)c12` [3-amino-N-(2,3-difluorobenzyl)-4-methyl-6-(4-pyridylmethoxy)thieno[2,3-b]pyridine-2-carboxamide], the EC50 was 1670 nM.

Source of the values: BindingDB's records for doi:10.7270/Q2XD103V (Vanderbilt Screening Center for GPCRs, Ion Channels and …, 2010).
